The source of these data is US20090312336A1, “DIHYDROPTERIDINE COMPOUNDS AS ANTI PROLIFERATIVE AGENTS” (ASTRAZENECA AB, priority 2006, published 2009).

The target in one test is T1, recombinant Plk1 (Homo sapiens, UniProt P53350).
T1 construct: The full-length Plk1 protein is expressed in insect cells as an N-terminal 6His tag fusion; 6His (N); made in house; host or cells: insect cells (Plk1); E. coli (GST-Cdc25C substrate)
Put plainly: In vitro Plk1 enzyme assay (SPA). In kind it is biochemical. An excerpt: The assay uses Scintillation Proximity Assay (SPA) technology (Antonsson et al., Analytical Biochemistry, 1999, 267: 294-299) to determine the ability of test compounds to inhibit phosphorylation by recombinant Plk1. The full-length Plk1 protein is expressed in insect cells as an N-terminal 6His tag fusion and purified by standard Nickel chelate purification techniques using the His tag.
The amino terminal fragment of Cdc25C (encoding residues 1-165) is expressed in E. coli as a GST fusion and purified using the GST tag by standard purification techniques.
Test compounds were prepared as 10 mM stock solutions in dimethyl sulphoxide (DMSO) and diluted into water as required to give a range of final assay concentrations. Aliquots (5 μl) of each compound dilution were dispensed into a well of a 384-well flat bottom white polystyrene plate (Matrix, Catalogue No. 4316). A 35 μl mixture of recombinant purified Plk1 enzyme (12 ng/well), purified GST-Cdc25C (150 ng/well), adenosine triphosphate (ATP; 64 nM), ^33P-labelled adenosine triphosphate (^33P-ATP; 60 nCi/well) in a buffer solution [comprising 50 mM HEPES pH7.5 buffer, 10 mM manganese chloride (MnCl2), 1 mM dithiothreitol (DTT), 1 mg/ml bovine serum albumin (BSA), 100 μM sodium vanadate (Na3VO4), 100 μM sodium fluoride (NaF) and 10 mM sodium glycerophosphate] was added and the reactions incubated at ambient temperature for 90 minutes.
Reactions were stopped by addition of EDTA (110 mM) and the Cdc25C substrate captured via its GST tag to anti-GST antibody (Molecular Probes, Cat No A-5800) coated Protein A PVT SPA beads (Amersham Biosciences, Catalogue No. RPQ0019; 250 μg/well) in 50 mM HEPES pH7.5 buffer containing 0.05% (w/v) sodium azide and incubated for up to 2 hours, followed by the addition of 20 μl of 4M caesium chloride (final assay concentration of 1M). Plates were then left in the dark overnight before counting on a Packard TopCount NXT.
Radiolabelled phosphorylated substrate is formed in situ as a result of Plk1 mediated phosphorylation. The SPA beads contain a scintillant that can be stimulated to emit light. This stimulation only occurs when a radiolabelled phosphorylated substrate is bound to the surface of the coated SPA bead causing the emission of blue light that can be measured on a scintillation counter. Accordingly, the extent of Plk1 mediated Cdc25C phosphorylation was assessed. The raw assay data were then analysed by non-linear regression analysis and Plk1 enzyme inhibition for a given test compound is expressed as an IC50 value.

In test [1] the test system is human colon tumour cell line HT29. Put plainly: Cellular assay: phosphohistone H3 mitotic marker in HT29 cells. The format is cell-based. Conditions: HT-29, 24 h, phosphohistone H3 staining. As to the method: Chromosome condensation in mitosis is accompanied by phosphorylation of histone H3 on serine 10. Dephosphorylation begins in anaphase and ends at early telophase, thus histone H3 serine 10 phosphorylation acts as an excellent mitotic marker and is used to determine the ability of compounds of the present invention to block cells in mitosis.
Cells of the human colon tumour cell line HT29 were seeded into 96 well black plates (Costar, Catalogue No 3904) in phenol red free Dulbecco's Modified Eagles Medium (DMEM) supplemented with 10% (v/v) FCS and 1% (v/v) L-Glutamine and incubated overnight at 37° C. […] Cells were again washed with PBS and incubated with 50 μl secondary antibody (1:1000 Alexa Fluor 488 goat anti-rabbit (Molecular Probes Cat No A-11008) and Hoechst (1:10000) diluted in PBS 0.05% (v/v) Tween 20 and left for 1 hour at room temperature in the dark. Cells were washed with PBS then covered with fresh PBS and stored at 4° C. until analysis. Images are acquired and analysed in an automated manner using the Cellomics ArrayScan II or VTi. In this assay both hoechst and phosphohistone H3 staining are measured. Hoechst staining generates a valid cell count while phosphohistone H3 staining determines the number of mitotic cells. […] The raw assay data were analysed by non-linear regression analysis and used to determine an IC50 value for each compound.

Where [2] appears, read: Plk1 enzyme, class symbols for IC50, read-out: Kinase Inhibition.

Where two headings read alike, the source gives them in different places.

T1 sequence (P53350 whole entry, the tested form may be a part): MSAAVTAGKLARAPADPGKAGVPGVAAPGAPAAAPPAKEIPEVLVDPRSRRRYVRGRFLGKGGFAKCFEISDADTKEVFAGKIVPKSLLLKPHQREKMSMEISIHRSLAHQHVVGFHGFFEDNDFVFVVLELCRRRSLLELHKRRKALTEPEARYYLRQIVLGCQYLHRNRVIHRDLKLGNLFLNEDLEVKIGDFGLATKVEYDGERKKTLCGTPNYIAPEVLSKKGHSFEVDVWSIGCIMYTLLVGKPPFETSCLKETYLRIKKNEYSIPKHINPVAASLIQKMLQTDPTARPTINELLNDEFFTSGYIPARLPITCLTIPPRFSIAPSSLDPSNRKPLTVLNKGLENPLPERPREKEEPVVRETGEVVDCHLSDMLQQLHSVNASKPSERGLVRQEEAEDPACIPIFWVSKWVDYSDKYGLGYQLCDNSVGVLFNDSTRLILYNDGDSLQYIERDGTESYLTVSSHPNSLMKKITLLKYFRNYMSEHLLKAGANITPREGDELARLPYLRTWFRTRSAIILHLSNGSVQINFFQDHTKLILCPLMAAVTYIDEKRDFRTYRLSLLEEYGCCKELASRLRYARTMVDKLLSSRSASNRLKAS

Consider `CC[C@@H]1CN(C)c2cnc(Nc3ccc(CNC4CCN(C)CC4)c(F)c3)nc2N1C1CCCC1` [Example 4, (7R)-8-Cyclopentyl-7-ethyl-N-[3-fluoro-4-[[(1-methyl-4-piperidyl)amino]methyl]phenyl]-5-methyl-6,7-dihydropteridin-2-amine], for which the IC50 on recombinant Plk1 (setting [2]) is 3 to 6 µM.
For the compound `CCOc1cc(C(=O)NC2CCN(C)CC2)ccc1Nc1ncc2c(n1)N(C1CCCC1)[C@H](CC)CN2C` [Example 8, 4-[[(7R)-8-Cyclopentyl-7-ethyl-5-methyl-6,7-dihydropteridin-2-yl]amino]-3-ethoxy-N-(1-methyl-4-piperidyl)benzamide], the IC50 on recombinant Plk1 (setting [2]) is less than 3 µM.
Consider `CCC[C@@H]1CN(C)c2cnc(Nc3ccc(C(=O)NC4CCN(C)CC4)cc3OC)nc2N1C1CCCC1` [Example 7, 4-{[(7R)-8-Cyclopentyl-5-methyl-7-propyl-5,6,7,8-tetrahydropteridin-2-yl]amino}-3-methoxy-N-(1-methylpiperidin-4-yl)benzamide], for which the IC50 at recombinant Plk1 (setting [2]) is less than 3 µM.
Turning to `CC[C@@H]1CN(C)c2cnc(Nc3ccc(C(=O)NC4CCN(C)CC4)cc3OC)nc2N1C1CCCC1` [Example 1, 4-[[(7R)-8-Cyclopentyl-7-ethyl-5-methyl-6,7-dihydropteridin-2-yl]amino]-3-methoxy-N-(1-methyl-4-piperidyl)benzamide], on recombinant Plk1 (setting [2]), the IC50 was less than 3 µM.
Turning to `CC[C@@H]1CN(CC)c2cnc(Nc3ccc(C(=O)NC4CCN(C)CC4)cc3OC)nc2N1C1CCCC1` [Example 5, 4-[[(7R)-8-Cyclopentyl-5,7-diethyl-6,7-dihydropteridin-2-yl]amino]-3-methoxy-N-(1-methyl-4-piperidyl)benzamide], at recombinant Plk1 (setting [2]), the IC50 is less than 3 µM.
Turning to `CC[C@@H]1CN(C)c2cnc(Nc3ccc(C(=O)NCC(C)(C)CN(C)C)cc3OC)nc2N1C1CCCC1` [Example 2, 4-[[(7R)-8-Cyclopentyl-7-ethyl-5-methyl-6,7-dihydropteridin-2-yl]amino]-N-(3-dimethylamino-2,2-dimethyl-propyl)-3-methoxy-benzamide], the IC50 at recombinant Plk1 (setting [2]) was less than 3 µM.
For the compound `CC[C@@H]1CN(C)c2cnc(Nc3ccc(CNCC(C)(C)CN(C)C)cc3OC)nc2N1C1CCCC1` [Example 3, N-[[4-[[(7R)-8-Cyclopentyl-7-ethyl-5-methyl-6,7-dihydropteridin-2-yl]amino]-3-methoxy-phenyl]methyl]-N′,N′,2,2-tetramethyl-propane-1,3-diamine], the IC50 on recombinant Plk1 (setting [2]) fell in the range of 6 to 15 µM.
`COc1cc(C(=O)NC2CCN(C)CC2)ccc1Nc1ncc2c(n1)N(C1CCCC1)[C@H](C1CC1)CN2C` [Example 6, 4-{[(7R)-8-Cyclopentyl-7-cyclopropyl-5-methyl-5,6,7,8-tetrahydropteridin-2-yl]amino}-3-methoxy-N-(1-methylpiperidin-4-yl)benzamide]: the IC50 in test [1] was 0.256 µM; on recombinant Plk1 (Plk1 enzyme assay, read-out: IC50 value in the enzyme assay), 0.699 µM; on recombinant Plk1 (setting [2]) it was less than 3 µM.
